Results: article PMC12080252, “Daphnia magna as an Alternative Model for (Simultaneous) Bioaccumulation and Chronic Toxicity Assessment—Controlled Exposure Study Indicates High Hazard of Heterocyclic PAHs” (Environmental Science & Technology, 2025)
Where “and” joins values, the source holds several entries; their conditions need not be identical. Identical values can stand only once.

Experiments:
[1] = Chronic reproduction toxicity test (OECD 211) with passive dosing; format: in vivo, Daphnia magna; parameters: % inhibition, avr. of vessels: concentration or dose not given beside the values; settings: Daphnia magna, in vivo, other: waterborne exposure by passive dosing from PDMS disks, 21-day test
Experimental: (§1) Chronic toxicity tests with D. magna were performed according to the OECD guideline 211^2 using the passive dosing method. Two days before the tests, the exposure solution was predosed by shaking 10 PDMS disks loaded with the test substance in 1 L of medium for 48 h. Each test vessel (250 mL) was first flushed with the dosed solution to equilibrate the vessel walls, then filled with 100 mL of test solution, one PDMS disk, and one juvenile D. magna (<24 h old). The tests were conducted in loosely closed bottles to allow for adequate gas exchange and limit evaporation. The exposure medium was changed three times per week, and the animals were fed D. subspicatus daily (0.2 mg C/Daphnia/day). The number of offspring per adult and behavioral or physiological effects (e.g., size, movement, unhatched eggs) were recorded daily (except weekends). Dissolved oxygen, pH and temperature were also measured each week.
(§2) Tests were performed under static conditions (20 °C, 16:8 h light/dark cycle, 1 klux). Each compound was tested in 10 replicates for controls and limit tests (a single high concentration exposure to screen for significant toxic effects) and with 6 or 10 replicates for concentration–response tests. Reuse of silicone disks was included in some experiments (Table S3). Reproductive inhibition was assessed by counting offspring over 21 days. The number of offspring per mother in treatment groups was compared to controls, and the percent inhibition per replicate was used to generate concentration–response curves. A minimum of five concentrations per compound were tested to determine EC10, EC20, and EC50 values. For each test, three sets of polymers were rotated between loading, dosing, and exposure stages (Figure S2). Initial (before animal and food addition) and final (after 2–3 days of exposure, just before the medium change) water concentrations (CW) were monitored, with the latter collected after centrifugation to remove biomass (e.g., algae, carapaces, or feces).
(§3) All data are presented as average ± standard deviation. Student’s t test was used to analyze significance (p-value >0.05 considered insignificant). Concentration–response curve parameters (effective concentrations and confidence limits) and plots were generated using GraphPad Prism software (V6.01, GraphPad Software, La Jolla, CA, USA). The exposure concentrations were log10 transformed before fitting. Then a four parameters logistic model with variable slope was used to obtain EC10, EC20 and EC50 (see section S5 in SI file for details). Effective chemical activities (EA50) for chronic toxicity were calculated as follows: [drawing 1] 1 […]
(§4) S5. Concentration-response curve (CRC) fitting procedure
(§5) GraphPad Prism version 9.5.1 was used to fit CRC and obtain EC10, EC20, EC50 values and their confidence intervals. The exposure concentrations were log10 transformed before fitting. Then a four parameters logistic model with variable slope was used that describes the response as a function of following four parameters: minimum response (the Bottom), maximum response (the Top), the concentration required to cause a response half-way between the minimum and maximum (the EC50) and the slope of the curve […]
(§6) concentration. The Top was constrained to 100, the Bottom was constrained to 0, the HillSlope was not […]
(§7) !"# %& = !"# %&* − , × !"# 3 * 4
(§8) (, + ,((!"# %&'(<=)×-.!!/!"01)
(§9) Figure S7 Concentration-response curves of four NSO-PAHs based on reproductive inhibition during 21-day chronic toxicity tests with D. magna.
(§10) (1 picture or pasted object on this page, not shown here)

Daphnia magna = assay: as above; format: in vivo; parameters: % inhibition, avr. of vessels: concentration or dose not given beside the values; settings: for EC10: 21-day reproduction inhibition; for #offspring per mother, Total: single vessels (replicates); for #dead offspring per mother, Total: single vessels; for wet weight of parent daphnids, change relative to control: end of 21-d exposure
Experimental: as §1, §2, §3, §4, §5, §6, §7, §8, §9, §10

[2] = cited from earlier work
[3] = 21-day reproduction test, sheet Test 4-BNF, last treatment block, single replicate vessels 1-6
[4] = BNF avr. medium concentration 0.77 µg/L, 21 days
[5] = BNF avr. medium concentration 2.99 µg/L, 21 days

Compound: c1ccc2c(c1)ccc1oc3ccccc3c12 [BNF, benzo[b]naphtho[1,2-d]furan]
- mortality at 21 days, 0.3 µg/L ([1]; 0.3 µg/L (Fig. S8), read-out: % offspring mortality of total offspring): 0.3%
- mortality at 21 days, 0.8 µg/L ([1]; 0.8 µg/L (Fig. S8), read-out: % offspring mortality of total offspring): 0%
- mortality at 21 days, 1.5 µg/L ([1]; 1.5 µg/L (Fig. S8), read-out: % offspring mortality of total offspring): 0.4%
- mortality at 21 days, 3 µg/L ([1]; 3.0 µg/L (Fig. S8), read-out: % offspring mortality of total offspring): 0%
- mortality at 21 days, 4.4 µg/L ([1]; 4.4 µg/L (Fig. S8), read-out: % offspring mortality of total offspring): 0.7%
- mortality at 21 days ([1]; at higher exposure levels, read-out: offspring mortality): < 1%
- EC10 (Daphnia magna; 97.5-2.5% confidence interval in brackets): 0.91 (0.35-1.67) μg L^-1
- EC10 (Daphnia magna; confidence interval in brackets): 4.17 (1.60-7.63) nmol L^-1
- % inhibition, avr. of vessels (Daphnia magna; 21-day reproduction test, sheet Test 4-BNF, last treatment block, average of 6 vessels): 35.3%
- % inhibition (of reproduction, per vessel) (Daphnia magna; [3]): 17.3% and 34.4% and 37.2% and 35.8% and 67.2% and 20.1%
- Total #dead offspring per mother (per vessel) (Daphnia magna; [3]): 1 and 0
- growth of parent D. magna (wet weight) (Daphnia magna; 21-day test, p-value <0.05): significantly inhibited D. magna growth
- %offspring mortality (Daphnia magna; 21 days): 0.73%
- #average live offspring (Daphnia magna; 21 days, mean of 6 vessels, sheet Test 4-BNF, last treatment block): 45
- LOEC (lowest observed effect concentration, reproduction inhibition) (Daphnia magna; 21 days, p-value <0.05 vs controls): 3.0 μg L^–1
- #total live offspring (Daphnia magna; 21 days, sum of 6 vessels, sheet Test 4-BNF, last treatment block): 272
- #offspring per mother, Total (Daphnia magna; BNF avr. medium concentration 0.35 µg/L (methanol for dosing 0.063 g/L), 21 days): 77 and 63 and 72 and 59 and 68
- %offspring mortality (Daphnia magna; BNF avr. medium concentration 0.35 µg/L, 21 days): 0.25%
- % inhibition, avr. (Daphnia magna; BNF avr. medium concentration 0.35 µg/L, 21 days, average of vessels): 4.4%
- #average live offspring (Daphnia magna; BNF avr. medium concentration 0.35 µg/L, 21 days, per mother): 67
- #total live offspring (Daphnia magna; BNF avr. medium concentration 0.35 µg/L, 21 days, sum of all vessels): 402
- #offspring per mother, Total (Daphnia magna; BNF avr. medium concentration 0.77 µg/L (methanol for dosing 0.125 g/L), 21 days): 72 and 65 and 81 and 60 and 59
- %offspring mortality (Daphnia magna; [4]): 0.00%
- % inhibition, avr. (Daphnia magna; BNF avr. medium concentration 0.77 µg/L, 21 days, average of vessels): 2.8%
- #average live offspring (Daphnia magna; BNF avr. medium concentration 0.77 µg/L, 21 days, per mother): 68
- #dead offspring per mother, Total (Daphnia magna; [4]): 0
- #total live offspring (Daphnia magna; BNF avr. medium concentration 0.77 µg/L, 21 days, sum of all vessels): 409
- #offspring per mother, Total (Daphnia magna; BNF avr. medium concentration 1.55 µg/L (methanol for dosing 0.25 g/L), 21 days): 68 and 44 and 67 and 57 and 40
- %offspring mortality (Daphnia magna; BNF avr. medium concentration 1.55 µg/L, 21 days): 0.36%
- % inhibition, avr. (Daphnia magna; BNF avr. medium concentration 1.55 µg/L, 21 days, average of surviving vessels): 21.3%
- #average live offspring (Daphnia magna; BNF avr. medium concentration 1.55 µg/L, 21 days, per mother): 55
- #total live offspring (Daphnia magna; BNF avr. medium concentration 1.55 µg/L, 21 days, sum of surviving vessels): 276
- state of the mother animal (parental mortality) (Daphnia magna; BNF avr. medium concentration 1.55 µg/L, vessel 5, day 16): dead
- #offspring per mother, Total (Daphnia magna; BNF avr. medium concentration 2.99 µg/L (methanol for dosing 0.5 g/L), 21 days): 46 and 49 and 38 and 47 and 60 and 51
- %offspring mortality (Daphnia magna; [5]): 0.00%
- % inhibition, avr. (Daphnia magna; BNF avr. medium concentration 2.99 µg/L, 21 days, average of vessels): 30.8%
- #average live offspring (Daphnia magna; BNF avr. medium concentration 2.99 µg/L, 21 days, per mother): 49
- #dead offspring per mother, Total (Daphnia magna; [5]): 0
- #total live offspring (Daphnia magna; BNF avr. medium concentration 2.99 µg/L, 21 days, sum of all vessels): 291
- EA50 (effective chemical activity) (Daphnia magna; EC50/subcooled liquid solubility, eq 1): 0.002 unitless
- Classification according to REACH Annex XIII (Daphnia magna; chronic EC10 < 10 μg L^–1): toxic to aquatic life
- CTLBB (critical target lipid body burden) (Daphnia magna; derived from chronic EC10 using eq 3): 1.7 μmol g^-1 octanol
- wet weight of parent daphnids, change relative to control (Daphnia magna; 0.3 µg/L (Fig. S9)): -11%
- wet weight of parent daphnids, change relative to control (Daphnia magna; 0.8 µg/L (Fig. S9)): -23%
- wet weight of parent daphnids, change relative to control (Daphnia magna; 1.5 µg/L (Fig. S9)): -12%
- wet weight of parent daphnids, change relative to control (Daphnia magna; 3.0 µg/L (Fig. S9)): -33%
- wet weight of parent daphnids, change relative to control (Daphnia magna; 4.4 µg/L (Fig. S9)): -38%
- Parent animal mortality (Daphnia magna; vessel 5, day 16, sheet Test 4-BNF, last treatment block): dead (reported as exposure related)
- SW (water solubility) ([2]; measured in previous work): 0.25 µg/mL
- log KOW ([2]; n-octanol-water partition coefficient): 5.6
- log KOC ([2]; organic carbon-water partition coefficient): 4.98
